Each structure is given as a SMILES string.

Usually melting point stands for the temperature, or range, at which the solid turns liquid.

`O=C1NC=C(C(=O)c2ccc(-n3ccnc3)cc2)C(c2ccccc2[N+](=O)[O-])N1` (centres unmarked) [Compound 2, 5-[4-(1H-imidazol-1-yl)benzoyl]-4-(2-nitrophenyl)-3,4-dihydropyrimidin-2(1H)-one] gave a melting point of 155 to 157 °C.
Then `O=C1NC=C(C(=O)c2ccc(-n3ccnc3)cc2)C(c2ccc(Cl)cc2)N1` (centres unmarked) [Compound 5, 4-(4-chlorophenyl)-5-[4-(1H-imidazol-1-yl)benzoyl]-3,4-dihydropyrimidin-2(1H)-one], with 180 to 182 °C; and `COc1ccccc1C1NC(=O)NC=C1C(=O)c1ccc(-n2ccnc2)cc1` (centres unmarked) [Compound 7, 5-[4-(1H-imidazol-1-yl)benzoyl]-4-(2-methoxyphenyl)-3,4-dihydropyrimidin-2(1H)-one], with 140 to 142 °C; and `O=C1NC=C(C(=O)c2ccc(-n3ccnc3)cc2)C(c2ccccc2)N1` (centres unmarked) [Compound 1, 5-[4-(1H-imidazol-1-yl)benzoyl]-4-phenyl-3,4-dihydropyrimidin-2(1H)-one], with 130 to 132 °C.
`O=C1NC=C(C(=O)c2ccc(-n3ccnc3)cc2)C(c2ccc(Cl)cc2Cl)N1` (centres unmarked) [Compound 6, 4-(2,4-dichlorophenyl)-5-[4-(1H-imidazol-1-yl)benzoyl]-3,4-dihydropyrimidin-2(1H)-one] returned a melting point of 138 to 140 °C.
`O=C1NC=C(C(=O)c2ccc(-n3ccnc3)cc2)C(c2cccc(O)c2)N1` (centres unmarked) [Compound 9, 4-(3-hydroxyphenyl)-5-[4-(1H-imidazol-1-yl)benzoyl]-3,4-dihydropyrimidin-2(1H)-one] yielded a melting point of 190 to 192 °C.
Compound `COc1cc(OC)c(C2NC(=O)NC=C2C(=O)c2ccc(-n3ccnc3)cc2)cc1OC` (centres unmarked) [Compound 11, 5-[4-(1H-imidazol-1-yl)benzoyl]-4-(2,4,5-trimethoxyphenyl)-3,4-dihydropyrimidin-2(1H)-one] came in with a melting point of 135 to 137 °C.
Then `O=C1NC=C(C(=O)c2ccc(-n3ccnc3)cc2)C(c2ccc([N+](=O)[O-])cc2)N1` (centres unmarked) [Compound 3, 5-[4-(1H-imidazol-1-yl)benzoyl]-4-(4-nitrophenyl)-3,4-dihydropyrimidin-2(1H)-one], with 158 to 160 °C.
The compound `COc1ccc(C2NC(=O)NC=C2C(=O)c2ccc(-n3ccnc3)cc2)c(OC)c1OC` (centres unmarked) [Compound 12, 5-[4-(1H-imidazol-1-yl)benzoyl]-4-(2,3,4-trimethoxyphenyl)-3,4-dihydropyrimidin-2(1H)-one] returned a melting point of 138 to 140 °C.
Then `COc1cccc(C2NC(=O)NC=C2C(=O)c2ccc(-n3ccnc3)cc2)c1` (centres unmarked) [Compound 10, 5-[4-(1H-imidazol-1-yl)benzoyl]-4-(3-methoxyphenyl)-3,4-dihydropyrimidin-2(1H)-one], with 125 to 127 °C.
Compound `O=C1NC=C(C(=O)c2ccc(-n3ccnc3)cc2)C(c2cccc([N+](=O)[O-])c2)N1` (centres unmarked) [Compound 4, 5-[4-(1H-imidazol-1-yl)benzoyl]-4-(3-nitrophenyl)-3,4-dihydropyrimidin-2(1H)-one] registered a melting point of 160 to 162 °C.
The compound `COc1ccc(C2NC(=O)NC=C2C(=O)c2ccc(-n3ccnc3)cc2)cc1OC` (centres unmarked) [Compound 15, 5-[4-(1H-imidazol-1-yl)benzoyl]-4-(3,4-dimethoxyphenyl)-3,4-dihydropyrimidin-2(1H)-one] yielded a melting point of 136 to 138 °C.
Consider `COc1cc(OC)c(C2NC(=O)NC=C2C(=O)c2ccc(-n3ccnc3)cc2)c(OC)c1` (centres unmarked) [Compound 14, 5-[4-(1H-imidazol-1-yl)benzoyl]-4-(2,4,6-trimethoxyphenyl)-3,4-dihydropyrimidin-2(1H)-one], for which the melting point lay within 130 to 132 °C.
`COc1cc(C2NC(=O)NC=C2C(=O)c2ccc(-n3ccnc3)cc2)cc(OC)c1OC` (centres unmarked) [Compound 13, 5-[4-(1H-imidazol-1-yl)benzoyl]-4-(3,4,5-trimethoxyphenyl)-3,4-dihydropyrimidin-2(1H)-one] displayed a melting point of 128 to 130 °C.

These data come from US10047071B1, “Dihydropyrimidinone derivatives” (KING SAUD UNIVERSITY, priority 2018, dated 2018).
